For one series, the system named is HeLa. As to the kind of experiment: cells. The format is cell-based. To be noted: Homo sapiens, HeLa, read-out: IC50 against cell proliferation, HeLa.
The next series has as its system A549. Kind of series: cells. The series is classed as cell-based. The settings on record: Homo sapiens, A549, read-out: IC50 against cell proliferation, A549.
A further series concerns MCF-7. Kind of series: cells. The format is cell-based. The settings on record: Homo sapiens, MCF7, read-out: IC50 against cell proliferation, MCF-7.
Another series concerns the target PI3Kα (Homo sapiens, UniProt P42336). As to the kind of experiment: In vitro PI3K enzyme inhibitory assay (ADP-Glo), PI3Kα. The settings on record: read-out: PI3Kα % inhibition at 10 μM. The format is biochemical.
Another series has as its target PI3Kβ (Homo sapiens, UniProt P42338). As to the kind of experiment: In vitro PI3K enzyme inhibitory assay (ADP-Glo), PI3Kβ. The settings on record: read-out: PI3Kβ % inhibition at 10 μM. The format is biochemical.
In the next series the target is PI3Kγ (Homo sapiens, UniProt P48736). Kind of series: In vitro PI3K enzyme inhibitory assay (ADP-Glo), PI3Kγ. The format is biochemical. The settings on record: read-out: PI3Kγ % inhibition at 10 μM.
Chain of PI3Kγ (P48736 whole entry): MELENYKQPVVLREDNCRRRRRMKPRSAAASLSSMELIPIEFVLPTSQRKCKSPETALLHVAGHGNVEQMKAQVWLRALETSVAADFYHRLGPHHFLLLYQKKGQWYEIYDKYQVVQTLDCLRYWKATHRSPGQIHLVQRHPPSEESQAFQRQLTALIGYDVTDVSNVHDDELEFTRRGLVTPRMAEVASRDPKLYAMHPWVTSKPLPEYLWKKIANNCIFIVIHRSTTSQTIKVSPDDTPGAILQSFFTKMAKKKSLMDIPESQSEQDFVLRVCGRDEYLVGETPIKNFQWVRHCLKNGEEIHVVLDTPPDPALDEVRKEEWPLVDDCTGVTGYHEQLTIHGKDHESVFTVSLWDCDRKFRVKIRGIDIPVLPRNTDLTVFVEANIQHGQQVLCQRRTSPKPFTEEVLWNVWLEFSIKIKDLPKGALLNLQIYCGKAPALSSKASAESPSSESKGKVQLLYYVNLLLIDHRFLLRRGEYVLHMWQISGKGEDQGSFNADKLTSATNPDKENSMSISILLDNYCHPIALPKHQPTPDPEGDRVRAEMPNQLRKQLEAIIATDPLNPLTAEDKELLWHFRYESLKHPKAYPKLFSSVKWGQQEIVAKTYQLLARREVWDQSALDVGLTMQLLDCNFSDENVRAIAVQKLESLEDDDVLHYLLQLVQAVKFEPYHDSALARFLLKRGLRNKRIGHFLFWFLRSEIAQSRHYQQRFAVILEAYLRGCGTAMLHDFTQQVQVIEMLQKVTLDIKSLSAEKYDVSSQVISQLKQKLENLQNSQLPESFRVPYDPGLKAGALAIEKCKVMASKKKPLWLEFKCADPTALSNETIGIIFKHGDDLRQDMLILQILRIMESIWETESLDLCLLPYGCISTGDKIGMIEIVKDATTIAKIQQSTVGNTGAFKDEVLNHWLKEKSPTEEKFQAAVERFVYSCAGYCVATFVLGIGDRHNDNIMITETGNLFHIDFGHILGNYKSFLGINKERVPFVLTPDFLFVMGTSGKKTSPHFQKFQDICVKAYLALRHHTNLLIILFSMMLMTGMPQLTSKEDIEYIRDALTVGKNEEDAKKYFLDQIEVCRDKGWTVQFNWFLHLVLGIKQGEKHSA
Another series deals with AKT. Kind of series: In vitro AKT enzyme inhibitory assay. The format is biochemical.
Series [1] deals with RAW264.7 macrophage cells. Kind of series: CCK-8 cell viability, RAW264.7 macrophages. The format is cell-based, Mouse. To be noted: 24 h. The procedure: To obtain more accurate anti-inflammatory results and minimize the impact of cell death caused by the test compounds on the outcomes, we first evaluated the effects of the compounds on RAW264.7 macrophage viability. The cells were divided into two groups: one treated with […] LPS and the other untreated. Macrophages were exposed to compounds at concentrations of 10, 50, and 100 μM for 24 h, followed by cell viability measurement using the CCK-8 assay ([Huang et al., 2022]; [Flannigan and Wallace, 2015]; [Citi et al., 2020]; [Gemici and Wallace, 2015]). […] In the presence of LPS stimulation, a slight reduction of 11% cell activity was observed.
The CCK-8 assay is a commonly used method for assessing cell viability, based on cellular metabolic activity. […]
The CCK-8 assay is a commonly used method for assessing cell viability, based on cellular metabolic activity. […] The culture plate is then incubated in a suitable incubator for a defined period (usually 4 hours), followed by measuring the absorbance of each group's culture medium using a spectrophotometer, typically at a wavelength of 450 nanometers. Cell relative activity or viability is calculated based on absorbance values, often by subtracting the background absorbance from the control group's values and normalizing to the control group's values to obtain relative activity or viability.

The subject of series [2] is nitrite production in RAW264.7 cells. Kind of series: Griess assay, LPS-induced nitrite production in RAW264.7. The series is classed as cell-based. To be noted: Mus musculus, 24 h, 1 mg/mL LPS. The source says:
Nitric oxide (NO) affects inflammation signaling pathways, regulating the intensity and timing of inflammatory responses, making it a crucial regulatory molecule in inflammation. LPS induces the production of nitric oxide (NO) by activating a series of signal transduction pathways. Upon NF-κB activation, transcription of the iNOS gene is promoted, leading to the synthesis of inducible nitric oxide synthase (iNOS). iNOS is an enzyme that produces large amounts of NO, activated under inflammatory conditions to release substantial nitric oxide ([Kumar, 2023]). In vivo, NO is easily oxidized by superoxide ions to generate nitrites. Studies have shown that H2S not only acts to scavenge peroxides but also undergoes chemical reactions with NO, forming novel nitrosylthiol compounds. We assess the anti-inflammatory activity of compounds by measuring nitrite production ([Somensi et al., 2019]).
The Griess assay is used to measure nitrite levels in biological samples, both in vivo and in vitro. See Supplementary Material for more details ([Kumar, 2023]).
The Griess assay is used to measure nitrite levels in biological samples, both in vivo and in vitro. […] The absorbance is measured at a wavelength of 540-550 nanometers, and the concentration of the red product is directly proportional to the absorbance. Nitrite concentrations can be calculated using a standard curve.

The subject of series [3] is TNF-α levels in RAW264.7 cells. As to the kind of experiment: ELISA, LPS-mediated TNF-α in RAW264.7. The settings on record: LPS-induced RAW264.7, 24 h, vs control group. The format is cell-based, Mouse.
Series [4] relates to IL-10 level in RAW264.7 cells. Kind of series: ELISA, IL-10 in RAW264.7. The settings on record: RAW264.7, 24 h. The format is cell-based, Mouse.
Series [5] relates to HO-1 levels in RAW264.7 cells. As to the kind of experiment: ELISA, HO-1 in RAW264.7. The settings on record: RAW264.7, 24 h. The format is cell-based, Mouse.
Series [6] is described as follows: H2S release, methylene blue (MB+) method. The format is physicochemical. The settings on record: MB+ method with TECP or cysteine; different temperature and pH.
Series [7] concerns HepG2 cell lines (liver tumor cell).
Series [8] concerns LO2 cell lines (normal liver cell).
Series [9] concerns WI38 normal cells.
The subject of series [10] is HepG2 cell lines (liver tumor cell). As to the kind of experiment: cells. To be noted: Homo sapiens, HepG2, 24 h, read-out: IC50 HepG2.
For series [11], the system named is LO2 cell lines (normal liver cell). Kind of series: cells. To be noted: Homo sapiens, L02, 24 h, read-out: IC50 LO2.
The test system of series [12] is WI38 normal cells. As to the kind of experiment: cells. The settings on record: Homo sapiens, WI-38, read-out: IC50 WI38.

A value given as a limit tells only on which side of the number the result lay.

Chain of PI3Kα (P42336 whole entry): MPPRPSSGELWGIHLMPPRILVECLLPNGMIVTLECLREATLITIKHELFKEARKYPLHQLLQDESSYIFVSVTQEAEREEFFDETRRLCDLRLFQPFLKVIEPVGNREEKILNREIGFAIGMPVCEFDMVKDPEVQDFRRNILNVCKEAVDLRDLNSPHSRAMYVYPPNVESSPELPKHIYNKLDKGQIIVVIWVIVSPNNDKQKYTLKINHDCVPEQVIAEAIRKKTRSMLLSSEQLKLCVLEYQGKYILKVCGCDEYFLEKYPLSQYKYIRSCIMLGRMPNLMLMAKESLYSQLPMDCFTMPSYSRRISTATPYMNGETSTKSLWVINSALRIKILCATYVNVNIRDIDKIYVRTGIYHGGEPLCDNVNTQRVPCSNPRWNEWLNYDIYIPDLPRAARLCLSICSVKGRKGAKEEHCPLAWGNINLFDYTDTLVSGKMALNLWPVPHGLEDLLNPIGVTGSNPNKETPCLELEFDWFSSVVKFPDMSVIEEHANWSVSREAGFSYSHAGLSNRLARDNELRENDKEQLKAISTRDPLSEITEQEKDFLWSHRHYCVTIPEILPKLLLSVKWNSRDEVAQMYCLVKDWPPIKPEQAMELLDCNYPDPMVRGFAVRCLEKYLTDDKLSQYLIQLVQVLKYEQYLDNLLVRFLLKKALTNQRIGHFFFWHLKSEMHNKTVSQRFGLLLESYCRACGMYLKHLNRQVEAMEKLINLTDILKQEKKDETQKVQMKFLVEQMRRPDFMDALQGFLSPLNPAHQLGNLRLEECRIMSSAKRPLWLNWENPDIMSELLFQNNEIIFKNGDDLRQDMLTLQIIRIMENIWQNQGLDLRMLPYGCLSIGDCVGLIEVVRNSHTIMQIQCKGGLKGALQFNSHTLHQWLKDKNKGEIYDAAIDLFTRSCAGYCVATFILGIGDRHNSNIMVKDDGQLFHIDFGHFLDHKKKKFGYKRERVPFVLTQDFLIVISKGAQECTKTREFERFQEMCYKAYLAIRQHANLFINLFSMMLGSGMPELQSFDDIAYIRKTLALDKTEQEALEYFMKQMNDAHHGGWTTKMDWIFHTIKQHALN
Chain of PI3Kα (P27986 whole entry partner): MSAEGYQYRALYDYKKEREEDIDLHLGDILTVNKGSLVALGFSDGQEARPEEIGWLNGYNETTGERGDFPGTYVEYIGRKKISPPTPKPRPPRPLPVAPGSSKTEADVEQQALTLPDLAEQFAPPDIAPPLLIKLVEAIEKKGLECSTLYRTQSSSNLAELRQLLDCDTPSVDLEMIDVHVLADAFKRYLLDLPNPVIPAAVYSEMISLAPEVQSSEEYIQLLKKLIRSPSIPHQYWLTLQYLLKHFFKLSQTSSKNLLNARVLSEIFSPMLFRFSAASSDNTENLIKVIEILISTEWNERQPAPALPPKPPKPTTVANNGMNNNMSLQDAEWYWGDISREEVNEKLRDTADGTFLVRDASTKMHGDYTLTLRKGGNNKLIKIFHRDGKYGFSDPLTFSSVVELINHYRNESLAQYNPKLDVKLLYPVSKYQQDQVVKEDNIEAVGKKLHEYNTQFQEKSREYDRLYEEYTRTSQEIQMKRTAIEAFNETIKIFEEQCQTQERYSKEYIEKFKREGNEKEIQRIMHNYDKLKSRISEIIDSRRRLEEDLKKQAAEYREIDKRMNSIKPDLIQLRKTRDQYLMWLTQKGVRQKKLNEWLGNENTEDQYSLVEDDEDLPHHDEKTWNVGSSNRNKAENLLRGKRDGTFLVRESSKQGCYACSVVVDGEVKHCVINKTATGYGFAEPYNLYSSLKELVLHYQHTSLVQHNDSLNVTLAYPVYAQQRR
Chain of PI3Kβ (P42338 whole entry): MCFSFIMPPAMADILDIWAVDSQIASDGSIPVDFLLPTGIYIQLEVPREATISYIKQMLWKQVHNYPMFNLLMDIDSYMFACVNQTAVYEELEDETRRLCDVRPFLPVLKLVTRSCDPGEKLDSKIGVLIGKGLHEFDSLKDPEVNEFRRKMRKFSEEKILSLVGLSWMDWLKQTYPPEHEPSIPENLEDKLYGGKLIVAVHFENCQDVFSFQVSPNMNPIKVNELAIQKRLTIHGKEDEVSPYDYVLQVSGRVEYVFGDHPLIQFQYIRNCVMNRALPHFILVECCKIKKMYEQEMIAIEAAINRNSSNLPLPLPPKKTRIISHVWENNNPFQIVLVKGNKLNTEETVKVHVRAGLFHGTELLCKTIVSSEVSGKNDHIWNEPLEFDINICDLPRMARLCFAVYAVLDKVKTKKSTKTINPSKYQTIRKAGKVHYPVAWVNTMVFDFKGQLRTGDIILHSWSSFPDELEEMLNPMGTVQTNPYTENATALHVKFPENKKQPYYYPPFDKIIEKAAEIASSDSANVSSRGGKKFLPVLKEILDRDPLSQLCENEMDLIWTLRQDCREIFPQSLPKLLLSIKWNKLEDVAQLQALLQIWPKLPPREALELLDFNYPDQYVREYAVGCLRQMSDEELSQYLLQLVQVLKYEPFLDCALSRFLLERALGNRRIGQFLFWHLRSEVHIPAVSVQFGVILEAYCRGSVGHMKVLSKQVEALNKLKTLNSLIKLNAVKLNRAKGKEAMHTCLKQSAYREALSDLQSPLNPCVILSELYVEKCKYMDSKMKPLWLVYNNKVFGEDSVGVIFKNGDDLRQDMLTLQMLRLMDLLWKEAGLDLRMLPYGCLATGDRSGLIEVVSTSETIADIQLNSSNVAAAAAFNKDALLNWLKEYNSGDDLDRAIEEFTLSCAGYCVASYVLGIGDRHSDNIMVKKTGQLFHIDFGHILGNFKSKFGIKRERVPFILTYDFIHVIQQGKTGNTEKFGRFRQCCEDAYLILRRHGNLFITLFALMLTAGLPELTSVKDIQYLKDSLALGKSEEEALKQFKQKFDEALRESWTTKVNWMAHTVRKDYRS
Chain of PI3Kβ (P27986 whole entry partner): as the sequence (P27986 whole entry partner) above

As for `O=[N+]([O-])c1ccc2c(c1)NP(=S)(c1ccccc1)O2` (centres unmarked) [Compound S11, 5-nitro-2-phenyl-3H-benzo [d][1,3,2] oxazaphosphole 2-sulfide], the IC50 was 260 ± 7.6 µM in the series on HeLa; 294 ± 16.6 µM in the series with A549; 23 ± 3.2 µM with MCF-7; above 400 µM in series [10]; above 200 µM in series [11]; above 200 µM in the series on WI38 normal cells [12]. The figures for the inhibition at 10 µM on PI3Kα, on PI3Kβ and at PI3Kγ were 67%, 75% and 45%, respectively. Besides, in the series on AKT, the “AKT % inhibition at 10 μM” value was determined as 61%. In addition, the “Effect on RAW264.7 cell growth” value in [1] (absence of LPS, 10, 50, 100 μM) is recorded as “no significant effect on cell growth”. Besides, the “Reduction of RAW264.7 cell activity” value in [1] (presence of LPS stimulation, 10, 50, 100 μM) is 11%. Besides, the inhibition at 100 µM in [2] was around 75%. The “Decrease of TNF-α induction level” value in series [3] was determined as 80%. Further, the “Induction level of IL-10 relative to control group” value in series [4] is given as “three times that of the control group”. Further, the “HO-1 expression relative to control group” value in series [5] was “approximately twice the level of the control group”. In addition, the “H2S release amount (in words)” value in series [6] is “the highest amount of hydrogen sulfide was released”. Moreover, in series [7], the “Toxicity in words, HepG2” value is given as “low cytotoxicity”. The “Toxicity in words, LO2” value in [8] is on record as “low cytotoxicity”. In addition, the “Toxicity in words, WI38” value with WI38 normal cells [9] was “low cytotoxicity”.

(Values after PMC11790660 (Frontiers in Chemistry, 2025).)
